Data reported in article PMC5391474, “Investigation of the Role of Protein Kinase D in Human Rhinovirus Replication” (Journal of Virology, 2017).

Experiments:
Test in all cases: biochemical
Design in all cases: in vitro kinase selectivity panel, protein and lipid kinases, single concentration, ATP at Km
Conditions in all cases: ATP at Km
[1] = biological target: Blk(m) (Mus musculus, UniProt P16277)
Experimental: (§1) CRT0066101 was described previously ([48]) and was purchased for this study from Tocris, with a purity of 99.9%. CRT0066101 (XX-209) and compound XX-050 were synthesized as previously described ([68]). CRT0066051 (Y-095) was also synthesized as previously described ([69]). […] CRT0066101 can also be obtained in larger quantities from Ximbio. Inhibitors were tested in in vitro PKD kinase assays and cellular assays on PANC1 cells as previously described ([48]). The selectivity of the three PKD inhibitors was determined against a panel of protein and lipid kinases by Eurofins and the MRC PPU International Centre for Kinase Profiling (http://www.kinase-screen.mrc.ac.uk), respectively. Each inhibitor was tested at a single concentration of 1 μM and at an ATP concentration equivalent to the Km for each kinase. Having shown that HRV infection appears to activate PKD, we went on to explore the influence of chemical inhibitors of PKD on HRV replication. The compound CRT0066101 is a specific and potent PKD inhibitor that has been used in studies exploring its potential as an anticancer target ([48], [51]). This inhibitor has a 50% inhibitory concentration (IC50) of 1 nM against purified PKD in biochemical assays and a 50% effective concentration (EC50) of 1 μM in a cell-based assay (Table 1). We pretreated HeLa cells with increasing concentrations of the drug for 1 h followed by infection with HRV16. Viral replication was subsequently measured at 6 hpi by quantitative real-time PCR (qRT-PCR) (Fig. 2A) and by Western blotting using an antibody against the viral nonstructural protein 2C (Fig. 2B). […] Furthermore, we tested two novel and structurally different PKD inhibitors (CRT0066051 and XX-050) (Table 1) and confirmed that they too inhibited HRV 2C expression although with different potencies (Fig. 2D). Kinase selectivity profiling of all three PKD inhibitors was performed against a panel of protein and lipid kinases at a drug concentration of 1 μM and at an ATP concentration equivalent to the Km of each kinase (see Table S1 in the supplemental material). […] Since PKD is known to be involved in regulating the architecture of the Golgi apparatus, we confirmed the pharmacodynamic effect of these inhibitors by demon

[2] = biological target: Bmx(h) (Homo sapiens, UniProt P51813)
Experimental: as §1

[3] = biological target: T1, CDK5/p35(h) (Homo sapiens, UniProt Q00535)
T1 construct: p35
Experimental: as §1

[4] = biological target: CHKB (Homo sapiens, UniProt Q9Y259)
Experimental: as §1

[5] = biological target: T2, CK1γ2(h) (Homo sapiens, UniProt P78368)
T2 construct: gene CSNK1G2
Experimental: as §1

[6] = biological target: T3, CaMKI(h) (Homo sapiens, UniProt Q14012)
T3 construct: gene CAMK1
Experimental: as §1

[7] = biological target: DYRK2(h) (Homo sapiens, UniProt Q92630)
Experimental: as §1

[8] = biological target: EGFR(T790M,L858R)(h) (Homo sapiens, UniProt P00533, L858R/T790M)
Experimental: as §1

[9] = biological target: EphA2(h) (Homo sapiens, UniProt P29317)
Experimental: as §1

[10] = biological target: EphA7(h) (Homo sapiens, UniProt Q15375)
Experimental: as §1

[11] = biological target: Flt3(h) (Homo sapiens, UniProt P36888)
Experimental: as §1

[12] = biological target: T4, IR(h) (Homo sapiens, UniProt P06213)
T4 construct: gene INSR
Experimental: as §1

[13] = biological target: MELK(h) (Homo sapiens, UniProt Q14680)
Experimental: as §1

[14] = biological target: T5, PIK3CB / p85 (h) (Homo sapiens, UniProt P42338)
T5 construct: p110beta/p85
Experimental: as §1

[15] = biological target: T6, PIK4A (Homo sapiens, UniProt P42356)
T6 construct: gene PI4KA
Experimental: as §1

[16] = biological target: T7, PKCε(h) (Homo sapiens, UniProt Q02156)
T7 construct: gene PRKCE
Experimental: as §1

[17] = biological target: SPHK1 (Homo sapiens, UniProt Q9NYA1)
Experimental: as §1

[18] = biological target: T8, p70S6K(h) (Homo sapiens, UniProt P23443)
T8 construct: gene RPS6KB1
Experimental: as §1

T7 sequence (Q02156 whole entry): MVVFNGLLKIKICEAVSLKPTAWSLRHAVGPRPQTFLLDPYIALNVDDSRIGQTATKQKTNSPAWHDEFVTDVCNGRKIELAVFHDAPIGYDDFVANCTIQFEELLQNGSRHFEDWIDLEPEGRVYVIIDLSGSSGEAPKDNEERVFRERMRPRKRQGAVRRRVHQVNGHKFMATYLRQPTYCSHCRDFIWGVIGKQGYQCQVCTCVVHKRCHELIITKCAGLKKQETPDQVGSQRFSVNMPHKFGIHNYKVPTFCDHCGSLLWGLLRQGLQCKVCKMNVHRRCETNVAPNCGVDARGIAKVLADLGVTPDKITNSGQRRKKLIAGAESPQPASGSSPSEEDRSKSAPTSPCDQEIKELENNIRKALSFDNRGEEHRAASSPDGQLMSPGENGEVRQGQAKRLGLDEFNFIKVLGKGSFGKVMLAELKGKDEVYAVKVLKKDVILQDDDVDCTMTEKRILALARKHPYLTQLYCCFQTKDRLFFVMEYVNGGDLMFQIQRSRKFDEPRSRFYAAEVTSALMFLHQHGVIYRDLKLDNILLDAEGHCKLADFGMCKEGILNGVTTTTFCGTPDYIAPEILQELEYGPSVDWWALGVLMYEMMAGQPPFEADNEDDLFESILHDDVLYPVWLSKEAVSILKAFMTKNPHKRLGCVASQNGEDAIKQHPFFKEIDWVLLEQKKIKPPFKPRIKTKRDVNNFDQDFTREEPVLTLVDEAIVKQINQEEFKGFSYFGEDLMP
T8 sequence (P23443 whole entry): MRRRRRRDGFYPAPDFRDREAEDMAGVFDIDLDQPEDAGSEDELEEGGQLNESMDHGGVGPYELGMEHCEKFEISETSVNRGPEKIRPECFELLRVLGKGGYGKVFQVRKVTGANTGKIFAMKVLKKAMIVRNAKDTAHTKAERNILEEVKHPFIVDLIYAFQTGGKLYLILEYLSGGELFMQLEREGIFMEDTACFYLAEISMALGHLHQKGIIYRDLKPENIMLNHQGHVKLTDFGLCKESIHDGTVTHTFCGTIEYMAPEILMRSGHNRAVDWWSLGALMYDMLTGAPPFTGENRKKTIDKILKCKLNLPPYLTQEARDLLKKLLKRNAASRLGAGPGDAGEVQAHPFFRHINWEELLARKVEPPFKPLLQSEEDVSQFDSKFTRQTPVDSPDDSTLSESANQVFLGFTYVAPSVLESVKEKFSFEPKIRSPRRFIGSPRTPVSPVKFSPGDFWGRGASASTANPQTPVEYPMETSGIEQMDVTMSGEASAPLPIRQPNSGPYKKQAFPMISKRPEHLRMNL
T2 sequence (P78368 whole entry): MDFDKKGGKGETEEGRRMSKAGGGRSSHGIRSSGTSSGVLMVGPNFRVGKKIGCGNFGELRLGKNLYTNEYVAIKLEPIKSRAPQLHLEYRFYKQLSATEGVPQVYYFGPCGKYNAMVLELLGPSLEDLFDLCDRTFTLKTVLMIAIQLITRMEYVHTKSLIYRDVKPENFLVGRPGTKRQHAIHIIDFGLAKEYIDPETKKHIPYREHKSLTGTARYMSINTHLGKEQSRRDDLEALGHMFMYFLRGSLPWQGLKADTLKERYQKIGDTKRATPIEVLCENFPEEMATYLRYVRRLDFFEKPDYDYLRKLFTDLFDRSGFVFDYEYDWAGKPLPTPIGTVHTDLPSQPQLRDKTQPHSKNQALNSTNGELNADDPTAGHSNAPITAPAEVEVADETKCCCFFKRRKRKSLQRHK
T3 sequence (Q14012 whole entry): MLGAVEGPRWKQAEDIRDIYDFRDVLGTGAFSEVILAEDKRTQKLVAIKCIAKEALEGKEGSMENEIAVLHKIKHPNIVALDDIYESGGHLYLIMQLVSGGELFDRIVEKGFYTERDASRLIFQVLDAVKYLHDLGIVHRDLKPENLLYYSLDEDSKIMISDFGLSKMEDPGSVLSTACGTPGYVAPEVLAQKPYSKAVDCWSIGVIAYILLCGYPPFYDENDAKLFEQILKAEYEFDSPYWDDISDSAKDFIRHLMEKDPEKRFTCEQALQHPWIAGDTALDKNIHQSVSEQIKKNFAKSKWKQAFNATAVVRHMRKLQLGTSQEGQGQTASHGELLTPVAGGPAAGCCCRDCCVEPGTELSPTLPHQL
Chain of Flt3(h) (P36888 whole entry): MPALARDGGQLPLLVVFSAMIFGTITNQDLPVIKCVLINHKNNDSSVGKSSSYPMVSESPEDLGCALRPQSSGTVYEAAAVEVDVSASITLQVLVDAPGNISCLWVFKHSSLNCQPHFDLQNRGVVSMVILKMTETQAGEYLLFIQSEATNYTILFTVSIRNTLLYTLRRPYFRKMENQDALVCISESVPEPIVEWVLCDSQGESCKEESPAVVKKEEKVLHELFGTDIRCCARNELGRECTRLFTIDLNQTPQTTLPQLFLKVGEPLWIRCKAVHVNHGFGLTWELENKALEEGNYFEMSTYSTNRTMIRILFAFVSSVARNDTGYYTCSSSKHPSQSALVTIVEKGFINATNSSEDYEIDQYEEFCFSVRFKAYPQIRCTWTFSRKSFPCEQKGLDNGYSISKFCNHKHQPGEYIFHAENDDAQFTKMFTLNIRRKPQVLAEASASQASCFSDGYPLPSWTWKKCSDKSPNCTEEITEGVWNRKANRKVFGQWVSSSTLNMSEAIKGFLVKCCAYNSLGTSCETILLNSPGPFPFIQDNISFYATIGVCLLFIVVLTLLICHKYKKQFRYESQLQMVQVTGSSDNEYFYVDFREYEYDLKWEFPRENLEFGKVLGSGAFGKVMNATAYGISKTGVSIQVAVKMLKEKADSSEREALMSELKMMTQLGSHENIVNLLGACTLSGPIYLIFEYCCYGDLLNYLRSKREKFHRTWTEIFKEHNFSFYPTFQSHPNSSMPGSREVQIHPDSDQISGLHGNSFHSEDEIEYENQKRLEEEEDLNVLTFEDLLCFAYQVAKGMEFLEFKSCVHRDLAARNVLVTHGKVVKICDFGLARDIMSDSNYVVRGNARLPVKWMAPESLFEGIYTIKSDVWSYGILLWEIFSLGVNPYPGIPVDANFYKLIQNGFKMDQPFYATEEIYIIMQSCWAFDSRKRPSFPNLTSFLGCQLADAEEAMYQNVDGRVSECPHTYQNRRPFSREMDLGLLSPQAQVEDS
Chain of EGFR(T790M,L858R)(h) (P00533 whole entry T790M/L858R): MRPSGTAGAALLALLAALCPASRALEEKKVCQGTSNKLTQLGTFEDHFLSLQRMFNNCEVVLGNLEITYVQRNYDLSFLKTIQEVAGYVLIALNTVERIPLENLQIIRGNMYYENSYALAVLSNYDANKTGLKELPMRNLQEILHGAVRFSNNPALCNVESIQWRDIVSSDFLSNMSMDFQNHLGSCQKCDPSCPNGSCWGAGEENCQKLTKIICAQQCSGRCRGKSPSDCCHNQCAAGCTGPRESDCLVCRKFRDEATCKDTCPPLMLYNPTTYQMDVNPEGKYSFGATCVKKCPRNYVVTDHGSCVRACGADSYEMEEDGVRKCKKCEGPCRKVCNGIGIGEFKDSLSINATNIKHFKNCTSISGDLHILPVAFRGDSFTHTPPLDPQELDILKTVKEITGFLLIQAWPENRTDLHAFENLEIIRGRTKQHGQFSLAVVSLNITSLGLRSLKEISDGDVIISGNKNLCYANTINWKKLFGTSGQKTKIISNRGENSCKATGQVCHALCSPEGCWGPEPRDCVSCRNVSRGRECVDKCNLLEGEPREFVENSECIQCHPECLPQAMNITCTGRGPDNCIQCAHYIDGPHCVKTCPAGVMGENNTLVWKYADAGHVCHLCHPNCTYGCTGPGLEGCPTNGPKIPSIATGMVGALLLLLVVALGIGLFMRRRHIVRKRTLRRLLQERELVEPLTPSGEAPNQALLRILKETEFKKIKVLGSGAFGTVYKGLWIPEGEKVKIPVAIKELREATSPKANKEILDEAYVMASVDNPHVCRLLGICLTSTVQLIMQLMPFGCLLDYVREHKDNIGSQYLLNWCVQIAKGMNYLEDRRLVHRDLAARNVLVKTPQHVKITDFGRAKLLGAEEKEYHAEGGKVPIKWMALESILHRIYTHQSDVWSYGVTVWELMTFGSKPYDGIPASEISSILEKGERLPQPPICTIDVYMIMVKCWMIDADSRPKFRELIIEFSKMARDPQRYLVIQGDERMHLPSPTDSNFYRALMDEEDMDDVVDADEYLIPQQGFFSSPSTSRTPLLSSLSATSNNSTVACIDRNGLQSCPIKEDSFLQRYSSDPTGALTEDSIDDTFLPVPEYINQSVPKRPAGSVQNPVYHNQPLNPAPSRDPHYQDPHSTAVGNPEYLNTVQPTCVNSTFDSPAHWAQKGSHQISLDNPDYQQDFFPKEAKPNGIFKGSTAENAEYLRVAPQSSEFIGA
Chain of SPHK1 (Q9NYA1 whole entry): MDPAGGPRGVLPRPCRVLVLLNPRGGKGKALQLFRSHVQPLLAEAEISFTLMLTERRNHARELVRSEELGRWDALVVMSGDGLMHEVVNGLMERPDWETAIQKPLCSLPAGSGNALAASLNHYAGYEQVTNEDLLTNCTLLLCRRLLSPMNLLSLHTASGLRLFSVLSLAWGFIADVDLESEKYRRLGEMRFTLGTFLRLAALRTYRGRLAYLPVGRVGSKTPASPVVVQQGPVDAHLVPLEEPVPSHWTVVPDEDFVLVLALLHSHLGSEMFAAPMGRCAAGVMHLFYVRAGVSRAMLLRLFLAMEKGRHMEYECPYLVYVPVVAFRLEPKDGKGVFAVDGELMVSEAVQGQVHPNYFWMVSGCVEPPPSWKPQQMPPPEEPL
Chain of CHKB (Q9Y259 whole entry): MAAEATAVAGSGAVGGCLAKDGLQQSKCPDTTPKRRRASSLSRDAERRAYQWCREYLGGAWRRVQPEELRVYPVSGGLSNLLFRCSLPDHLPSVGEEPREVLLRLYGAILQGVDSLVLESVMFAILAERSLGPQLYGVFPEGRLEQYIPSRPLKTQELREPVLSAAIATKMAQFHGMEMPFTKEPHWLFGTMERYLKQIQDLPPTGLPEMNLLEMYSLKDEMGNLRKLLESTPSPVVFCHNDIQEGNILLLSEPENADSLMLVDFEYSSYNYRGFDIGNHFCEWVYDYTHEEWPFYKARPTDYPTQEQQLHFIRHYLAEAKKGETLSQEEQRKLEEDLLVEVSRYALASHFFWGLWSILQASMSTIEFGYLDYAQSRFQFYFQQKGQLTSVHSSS

SMILES: CC[C@@H](N)CNc1ccnc(-c2cc(-c3cnn(C)c3)ccc2O)n1 [CRT0066101]
- inhibition at 1 µM [1]: 12%
- inhibition at 1 µM [2]: 26%
- inhibition at 1 µM [3]: 95%
- inhibition at 1 µM [4]: 3%
- inhibition at 1 µM [5]: 0%
- inhibition at 1 µM [6]: 2%
- inhibition at 1 µM [7]: 94%
- inhibition at 1 µM [8]: -3%
- inhibition at 1 µM [9]: 2%
- inhibition at 1 µM [10]: -9%
- inhibition at 1 µM [11]: 4%
- inhibition at 1 µM [12]: -22%
- inhibition at 1 µM [13]: 55%
- inhibition at 1 µM [14]: 0%
- inhibition at 1 µM [15]: -11%
- inhibition at 1 µM [16]: 12%
- inhibition at 1 µM [17]: 19%
- inhibition at 1 µM [18]: 31%
